Data from patent US10336702B2, “Pharmaceutically active compounds” (BERGENBIO ASA, priority 2015, dated 2019).

How the values were obtained:
[1] = molecular target: T1, p-Akt3 in WM115 cells (Homo sapiens, UniProt Q9Y243); experiment: Phospho-Akt cellular SureFire assay, p-Akt3 in WM115 cells; format: cell-based; conditions: insulin stimulated, read-out: Biological Assay 2 IC50 (nM) Akt3 WM115
T1 construct: SureFire assays to detect cellular p-Akt1, p-Akt2 and p-Akt3 levels in WM115 cells (Akt2/3) and LNCaP cells (Akt1); endogenous in cells; host or cells: WM115 (ECACC 91061232), insulin-stimulated
T1 sequence (Q9Y243 whole entry): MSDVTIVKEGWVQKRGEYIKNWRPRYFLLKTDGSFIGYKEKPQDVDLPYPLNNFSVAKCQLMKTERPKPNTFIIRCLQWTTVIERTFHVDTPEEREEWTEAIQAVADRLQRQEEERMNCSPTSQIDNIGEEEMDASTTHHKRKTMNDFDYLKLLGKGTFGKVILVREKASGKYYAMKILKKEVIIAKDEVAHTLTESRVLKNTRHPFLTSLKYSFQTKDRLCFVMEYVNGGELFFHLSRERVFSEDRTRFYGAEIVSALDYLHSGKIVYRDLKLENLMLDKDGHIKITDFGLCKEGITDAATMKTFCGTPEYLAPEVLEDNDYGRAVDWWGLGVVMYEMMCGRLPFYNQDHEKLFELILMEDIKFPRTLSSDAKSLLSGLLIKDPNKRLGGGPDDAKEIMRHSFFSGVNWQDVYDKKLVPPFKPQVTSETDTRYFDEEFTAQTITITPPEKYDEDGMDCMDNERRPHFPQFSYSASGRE
Summary of the method: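 WM115 cells were serum-reduced to 0.1% FBS, stimulated with 100 nM insulin for 10 min, then exposed to compound (0.3% DMSO) for 15 min at 37 °C. Lysates were assayed for Thr308-phosphorylated Akt3 by AlphaScreen SureFire using an isoform-specific total Akt3 capture antibody. IC50 was derived from a 4-parameter fit.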

[2] = molecular target: T2, p-Akt2 in WM115 cells (Homo sapiens, UniProt P31751); experiment: Phospho-Akt cellular SureFire assay, p-Akt2 in WM115 cells; format: cell-based; conditions: insulin stimulated, read-out: Biological Assay 2 IC50 (nM) Akt2 WM115
T2 construct: SureFire assays to detect cellular p-Akt1, p-Akt2 and p-Akt3 levels in WM115 cells (Akt2/3) and LNCaP cells (Akt1); endogenous in cells; host or cells: WM115 (ECACC 91061232), insulin-stimulated
T2 sequence (P31751 whole entry): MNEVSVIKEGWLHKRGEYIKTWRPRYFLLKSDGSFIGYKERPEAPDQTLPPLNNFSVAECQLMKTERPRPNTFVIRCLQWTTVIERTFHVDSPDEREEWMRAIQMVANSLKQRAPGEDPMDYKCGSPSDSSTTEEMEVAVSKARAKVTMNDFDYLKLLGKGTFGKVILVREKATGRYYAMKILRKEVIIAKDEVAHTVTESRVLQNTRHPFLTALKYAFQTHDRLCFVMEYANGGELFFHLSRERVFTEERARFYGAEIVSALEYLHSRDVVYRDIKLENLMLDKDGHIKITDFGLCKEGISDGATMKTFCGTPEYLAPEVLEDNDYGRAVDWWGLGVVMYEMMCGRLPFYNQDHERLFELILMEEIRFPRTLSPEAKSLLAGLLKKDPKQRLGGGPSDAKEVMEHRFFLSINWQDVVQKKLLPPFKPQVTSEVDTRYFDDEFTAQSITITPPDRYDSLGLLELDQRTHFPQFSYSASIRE
Summary of the method: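 WM115 cells in 0.1% FBS medium stimulated 10 min with 100 nM insulin, then exposed to compound for 15 min at 37° C (0.3% DMSO final). Lysates assayed by AlphaScreen with anti-(pThr308)Akt and isoform-specific total Akt2 antibodies; IC50 from 4-parameter fit.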

[3] = molecular target: T3, p-Akt1 in LNCaP cells (Homo sapiens, UniProt P31749); experiment: Phospho-Akt cellular SureFire assay, p-Akt1 in LNCaP cells; format: cell-based; conditions: read-out: Biological Assay 2 IC50 (nM) Akt1 LNCaP
T3 construct: SureFire assays to detect cellular p-Akt1, p-Akt2 and p-Akt3 levels in WM115 cells (Akt2/3) and LNCaP cells (Akt1); endogenous in cells; host or cells: LNCaP (ECACC 89110211)
T3 sequence (P31749 whole entry): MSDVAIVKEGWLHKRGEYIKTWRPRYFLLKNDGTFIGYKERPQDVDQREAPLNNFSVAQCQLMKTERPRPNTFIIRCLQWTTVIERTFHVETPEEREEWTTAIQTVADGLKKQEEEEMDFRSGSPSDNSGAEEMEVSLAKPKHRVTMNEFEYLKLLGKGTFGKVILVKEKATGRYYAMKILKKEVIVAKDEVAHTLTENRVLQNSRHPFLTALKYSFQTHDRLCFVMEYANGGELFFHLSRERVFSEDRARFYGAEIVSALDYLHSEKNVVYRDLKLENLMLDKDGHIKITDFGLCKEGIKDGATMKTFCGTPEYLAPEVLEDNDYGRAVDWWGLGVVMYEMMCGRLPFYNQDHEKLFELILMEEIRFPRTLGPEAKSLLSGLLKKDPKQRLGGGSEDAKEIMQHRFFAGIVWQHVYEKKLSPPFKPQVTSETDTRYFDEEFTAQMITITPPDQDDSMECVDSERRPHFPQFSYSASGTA
Summary of the method: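 LNCaP cells, 5×10^4/well, seeded overnight, switched to 0.1% FBS medium without insulin stimulation, then compound for 15 min at 37 °C (0.3% DMSO). Lysate p-Akt1 (pThr308) by AlphaScreen SureFire, two 2 h incubations at room temperature; IC50 by 4-parameter fit.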

[4] = molecular target: T4, Akt1 (Homo sapiens, UniProt P31749); experiment: Akt activation assay (PDK1-mediated activation, LANCE Ultra crosstide TR-FRET), Akt1; format: biochemical; conditions: read-out: Biological Assay 1 IC50 (nM) Akt1
T4 construct: unspecified tag, removed (detagged) (cleaved yes); purchased SignalChem and Proteros (Akt1); Merck Millipore (PDK1) 14-452 (PDK1); none given for Akt1
T4 sequence (P31749 whole entry): as above
Summary of the method: (§1)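 Human Akt1, Akt2 or Akt3 (SignalChem: 5, 15, 3 nM; Proteros: 5 nM each) was preincubated with compound, then activated by 5 nM PDK1 on PtdIns(3,4,5)P3/DOPS/DOPC vesicles with 100 µM ATP and 100 nM ULight-crosstide (HEPES pH 7.5, 1% DMSO) for 30 min. Product was detected by Eu-anti-phospho-crosstide TR-FRET (665/615 nm), with IC50 from a 4-parameter fit.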

[5] = molecular target: T5, Akt3 (Homo sapiens, UniProt Q9Y243); experiment: Akt activation assay (PDK1-mediated activation, LANCE Ultra crosstide TR-FRET), Akt3; format: biochemical; conditions: read-out: Biological Assay 1 IC50 (nM) Akt3
T5 construct: unspecified tag, removed (detagged) (cleaved yes); purchased SignalChem and Proteros (Akt3); Merck Millipore (PDK1) 14-452 (PDK1); none given for Akt3
T5 sequence (Q9Y243 whole entry): as the sequence (Q9Y243 whole entry) above
Summary of the method: as §1

[6] = molecular target: T6, Akt2 (Homo sapiens, UniProt P31751); experiment: Akt activation assay (PDK1-mediated activation, LANCE Ultra crosstide TR-FRET), Akt2; format: biochemical; conditions: read-out: Biological Assay 1 IC50 (nM) Akt2
T6 construct: unspecified tag, removed (detagged) (cleaved yes); purchased SignalChem and Proteros (Akt2); Merck Millipore (PDK1) 14-452 (PDK1); none given for Akt2
T6 sequence (P31751 whole entry): as the sequence (P31751 whole entry) above
Summary of the method: as §1

SMILES	IC50 [1] [nM]	IC50 [2] [nM]	IC50 [3] [nM]	IC50 [4] [nM]	IC50 [5] [nM]	IC50 [6] [nM]
CN(C(=O)C1CC1)[C@H]1CC[C@H](CC(=O)Nc2cc(-c3ccccc3)c(-c3ccc([C@]4(N)C[C@](C)(O)C4)cc3)nn2)CC1 [Example A78, N-(trans-4-(2-((6-(4-(trans-1-amino-3-hydroxy-3-methylcyclobutyl)phenyl)-5-phenylpyridazin-3-yl)amino)-2-oxoethyl)cyclohexyl)-N-methylcyclopropanecarboxamide]	8	370	1400	1900	4	71
CC(C)C(=O)N(C)[C@H]1CC[C@H](CC(=O)Nc2cc(-c3ccccc3)c(-c3ccc([C@]4(N)C[C@](C)(O)C4)cc3)nn2)CC1 [Example A79, N-(trans-4-(2-((6-(4-(trans-1-amino-3-hydroxy-3-methylcyclobutyl)phenyl)-5-phenylpyridazin-3-yl)amino)-2-oxoethyl)cyclohexyl)-N-methylisobutyramide]	10	370	1900	3900	4	63
CCOC(=O)N(C)[C@H]1CC[C@H](CC(=O)Nc2cc(-c3ccccc3)c(-c3ccc([C@]4(N)C[C@](C)(O)C4)cc3)nn2)CC1 [Example A80, Ethyl (trans-4-(2-((6-(4-(trans-1-amino-3-hydroxy-3-methylcyclobutyl)phenyl)-5-phenylpyridazin-3-yl)amino)-2-oxoethyl)cyclohexyl)(methyl)carbamate]	10	710	2400	2400	4	74
CCC(=O)N(C)[C@H]1CC[C@H](CC(=O)Nc2cc(-c3ccccc3)c(-c3ccc(C4(N)CC4)cc3)cn2)CC1 [Example A81, N-(trans-4-(2-((5-(4-(1-aminocyclopropyl)phenyl)-4-phenylpyridin-2-yl)amino)-2-oxoethyl)cyclohexyl)-N-methylpropionamide]	390	9100	> 30000	> 30000	69	1200
C[C@]1(O)C[C@@](N)(c2ccc(-c3cnc(NC(=O)C[C@H]4CC[C@H](N5CCCC5=O)CC4)cc3-c3ccccc3)cc2)C1 [Example A82, N-(5-(4-(trans-1-amino-3-hydroxy-3-methylcyclobutyl)phenyl)-4-phenylpyridin-2-yl)-2-(trans-4-(2-oxopyrrolidin-1-yl)cyclohexyl)acetamide]	14	460	1800	3100	7	91
NC1(c2ccc(-c3cnc(NC(=O)C[C@H]4CC[C@H](N5CCCC5=O)CC4)cc3-c3ccccc3)cc2)CC1 [Example A83, N-(5-(4-(1-aminocyclopropyl)phenyl)-4-phenylpyridin-2-yl)-2-(trans-4-(2-oxopyrrolidin-1-yl)cyclohexyl)acetamide]	220	3400	> 20000	> 30000	33	500
CCC(=O)N(C)[C@H]1CC[C@H](CC(=O)Nc2cc(-c3ccccc3)c(-c3ccc(C(C)(C)N)cc3)nn2)CC1 [Example A84, N-(trans-4-(2-((6-(4-(2-aminopropan-2-yl)phenyl)-5-phenylpyridazin-3-yl)amino)-2-oxoethyl)cyclohexyl)-N-methylpropionamide]	150	7100	> 30000	> 30000	51	4000
CC(C)C(=O)N(C)[C@H]1CC[C@H](CC(=O)Nc2cc(-c3ccccc3)c(-c3ccc(C(C)(C)N)cc3)nn2)CC1 [Example A85, N-(trans-4-(2-((6-(4-(2-aminopropan-2-yl)phenyl)-5-phenylpyridazin-3-yl)amino)-2-oxoethyl)cyclohexyl)-N-methylisobutyramide]	270	8800	> 20000	> 30000	74	3400
CN(C(=O)C1CC1)[C@H]1CC[C@H](CC(=O)Nc2cc(-c3ccccc3)c(-c3ccc(C(C)(C)N)cc3)nn2)CC1 [Example A86, N-(trans-4-(2-((6-(4-(2-aminopropan-2-yl)phenyl)-5-phenylpyridazin-3-yl)amino)-2-oxoethyl)cyclohexyl)-N-methylcyclopropanecarboxamide]	170	8300	> 21000	> 30000	45	3900
CN(C(=O)C1CCC1)[C@H]1CC[C@H](CC(=O)Nc2cc(-c3ccccc3)c(-c3ccc(C(C)(C)N)cc3)nn2)CC1 [Example A87, N-(trans-4-(2-((6-(4-(2-aminopropan-2-yl)phenyl)-5-phenylpyridazin-3-yl)amino)-2-oxoethyl)cyclohexyl)-N-methylcyclobutanecarboxamide]	400	12000	> 23000	> 30000	99	5500
COC(=O)N(C)[C@H]1CC[C@H](CC(=O)Nc2cc(-c3ccccn3)c(-c3ccc(C4(N)CC4)cc3)cn2)CC1 [Example A88, Methyl ((1r,4r)-4-(2-((5′-(4-(1-aminocyclopropyl)phenyl)-[2,4′-bipyridin]-2′-yl)amino)-2-oxoethyl)cyclohexyl)(methyl)carbamate]	1600	> 30000	> 30000	> 30000	1400	> 27000
CCC(=O)N(C)[C@H]1CC[C@H](CC(=O)Nc2cnc(-c3ccc(C4(N)CC4)c(F)c3)c(-c3ccccc3)c2)CC1 [Example A89, N-(trans-4-(2-((6-(4-(1-aminocyclopropyl)-3-fluorophenyl)-5-phenylpyridin-3-yl)amino)-2-oxoethyl)cyclohexyl)-N-methylpropionamide]	130	8300	> 30000	> 30000	80	4000
CCC(=O)N(C)[C@H]1CC[C@H](CC(=O)Nc2cc(-c3ccccc3)c(-c3ccc(C4(N)CC4)cc3)nn2)CC1 [Example A91, N-(trans-4-(2-((6-(4-(1-aminocyclopropyl)phenyl)-5-phenylpyridazin-3-yl)amino)-2-oxoethyl)cyclohexyl)-N-methylpropionamide]	90	2000	> 30000	> 30000	24	490
CC(C)C(=O)N(C)[C@H]1CC[C@H](CC(=O)Nc2cc(-c3ccccc3)c(-c3ccc(C4(N)CC4)cc3)nn2)CC1 [Example A92, N-(trans-4-(2-((6-(4-(1-aminocyclopropyl)phenyl)-5-phenylpyridazin-3-yl)amino)-2-oxoethyl)cyclohexyl)-N-methylisobutyramide]	140	2200	> 30000	> 13000	29	1200
CN(C(=O)C1CCC1)[C@H]1CC[C@H](CC(=O)Nc2cc(-c3ccccc3)c(-c3ccc(C4(N)CC4)cc3)nn2)CC1 [Example A93, N-(trans-4-(2-((6-(4-(1-aminocyclopropyl)phenyl)-5-phenylpyridazin-3-yl)amino)-2-oxoethyl)cyclohexyl)-N-methylcyclobutanecarboxamide]	200	2600	> 30000	> 19000	37	1400
CCOC(=O)N(C)[C@H]1CC[C@H](CC(=O)Nc2cc(-c3ccccc3)c(-c3ccc(C4(N)CC4)cc3)nn2)CC1 [Example A94, Ethyl (trans-4-(2-((6-(4-(1-aminocyclopropyl)phenyl)-5-phenylpyridazin-3-yl)amino)-2-oxoethyl)cyclohexyl)(methyl)carbamate]	370	6000	> 30000	> 23000	57	2200
